Test results published in patent US7345070B2, “Peroxisome proliferator activated receptor agonists” (Eli Lilly and Company, priority 2000, dated 2008).

Key:
HuapoAI transgenic mice = assay: Evaluation of triglyceride and cholesterol level in HuapoAI transgenic mice; assay type: in vivo; settings: Mus musculus, 168 h, human apoAI transgenic mice, 30 mg/kg oral gavage daily for 7 days; for change in vivo at 30 mg/kg: FPLC area under the curve, over mice receiving vehicle, read-out: % HDLc Increase; for inhibition in vivo at 30 mg/kg: serum 3 h after dosing, read-out: Reduction in Triglyceride Serum Level
Outline: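 Mice got daily oral gavage doses for 7 days, and blood was drawn by cardiac puncture under isoflurane 3 h after the final dose. Serum triglycerides and total cholesterol were measured colorimetrically against standard curves. VLDL, LDL and HDL cholesterol came from Superose 6 FPLC in PBS-EDTA with in-line detection, as peak areas.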

huPPARα = target: T1, huPPARα (Homo sapiens, UniProt Q07869); assay: DNA-dependent binding (ABCD binding) using SPA technology, huPPARα; settings: SPA displacement of tritium-labeled PPARα agonist radioligand
T1 sequence (Q07869 1-468): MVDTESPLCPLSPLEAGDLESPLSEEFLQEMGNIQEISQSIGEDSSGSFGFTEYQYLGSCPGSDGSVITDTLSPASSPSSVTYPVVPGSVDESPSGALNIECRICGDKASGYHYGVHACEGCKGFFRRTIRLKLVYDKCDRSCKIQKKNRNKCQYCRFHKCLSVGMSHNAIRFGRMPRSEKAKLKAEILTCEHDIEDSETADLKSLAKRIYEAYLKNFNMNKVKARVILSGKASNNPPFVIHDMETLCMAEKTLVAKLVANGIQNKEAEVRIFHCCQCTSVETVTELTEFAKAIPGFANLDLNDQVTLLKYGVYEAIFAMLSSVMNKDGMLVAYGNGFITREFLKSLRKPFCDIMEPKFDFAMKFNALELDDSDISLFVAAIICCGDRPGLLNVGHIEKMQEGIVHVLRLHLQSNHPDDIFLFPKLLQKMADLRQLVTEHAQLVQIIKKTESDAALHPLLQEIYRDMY
T1 sequence (P19793 1-462 partner): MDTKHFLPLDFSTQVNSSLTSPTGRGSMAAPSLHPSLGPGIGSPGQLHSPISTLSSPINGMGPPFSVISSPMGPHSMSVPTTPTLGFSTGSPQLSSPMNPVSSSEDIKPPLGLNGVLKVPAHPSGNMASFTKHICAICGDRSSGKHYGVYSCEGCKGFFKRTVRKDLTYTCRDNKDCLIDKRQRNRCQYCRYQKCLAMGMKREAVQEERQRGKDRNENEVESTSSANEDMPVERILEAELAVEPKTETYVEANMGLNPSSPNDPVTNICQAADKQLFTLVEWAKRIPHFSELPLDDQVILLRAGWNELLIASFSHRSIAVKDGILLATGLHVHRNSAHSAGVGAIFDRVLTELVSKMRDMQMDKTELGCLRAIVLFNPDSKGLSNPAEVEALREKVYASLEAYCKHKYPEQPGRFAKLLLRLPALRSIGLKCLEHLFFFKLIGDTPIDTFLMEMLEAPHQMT
Method: DNA-dependent binding (ABCD binding) was carried out using SPA technology with PPAR receptors. Tritium-labeled PPARα and PPARγ agonists were used as radioligands for generating displacement curves and IC50 values with compounds of the invention. Cotransfection assays were carried out in CV-1 cells. The reporter plasmid contained an acylCoA oxidase (AOX) PPRE and TK promoter upstream of the luciferase reporter cDNA. Appropriate PPARs and RXRα were constitutively expressed using plasmids containing the CMV promoter. […] In order to eliminate such interference, a GAL4 chimeric system was used in which the DNA binding domain of the transfected PPAR was replaced by that of GAL4, and the GAL4 response element was utilized in place of the AOX PPRE. Cotransfection efficacy was determined relative to PPARα agonist and PPARγ agonist reference molecules. Efficacies were determined by computer fit to a concentration-response curve, or in some cases at a single high concentration of agonist (10 μM). For binding or cotransfection studies with receptors other than PPARs, similar assays were carried out using appropriate ligands, receptors, reporter constructs, etc., for that particular receptor.
These studies were carried out to evaluate the ability of compounds of the invention to bind to and/or activate various nuclear transcription factors, particularly huPPARα (“hu” indicates “human”) and huPPARγ. These studies provide in vitro data concerning efficacy and selectivity of compounds of the invention. Furthermore, binding and cotransfection data for compounds of the invention were compared with corresponding data for marketed compounds that act on either huPPARα or huPPARγ.

IC50 (huPPARα) | SMILES | change in vivo at 30 mg/kg (HuapoAI transgenic mice) | inhibition in vivo at 30 mg/kg (HuapoAI transgenic mice)
0.062 µM | Cc1oc(C2CCCCC2)nc1CCOc1ccc(CC(C)(Oc2ccc(C(F)(F)F)cc2)C(=O)O)cc1 (stereo not shown) [Example 52, 3-{4-[2-(2-Cyclohexyl-5-methyl-oxazol-4-yl)-ethoxy]-phenyl}-2-methyl-2-(4-trifluoromethyl-phenoxy)-propionic acid] | 185% | 75.9%
0.076 µM | COc1cccc(OC(C)(Cc2ccc(OCCc3nc(C4CCCCC4)oc3C)cc2)C(=O)O)c1 (stereo not shown) [Example 76, 3-{4-[2-(2-Cyclohexyl-5-methyl-oxazol-4-yl)-ethoxy]-phenyl}-2-(3-methoxy-phenoxy)-2-methyl-propionic acid] | 26% | 27.1%
0.076 µM | Cc1oc(C2CCCCC2)nc1CCOc1ccc(CC(C)(Oc2ccc3c(c2)OCO3)C(=O)O)cc1 (stereo not shown) [Example 80, 2-(Benzo[1,3]dioxol-5-yloxy)-3-{4-[2-(2-cyclohexyl-5-methyl-oxazol-4-yl)-ethoxy]-phenyl}-2-methyl-propionic acid] | 123% | 36.6%
0.055 µM | Cc1oc(CCc2ccccc2)nc1CCOc1ccc(C[C@](C)(Oc2ccccc2)C(=O)O)cc1 [Example 86, (S)-2-Methyl-3-{4-[2-(5-methyl-2-phenethyl-oxazol-4-yl)-ethoxy]-phenyl}-2-phenoxy-propionic acid] | 36% | 30.1%

Continued, compound first:

SMILES | IC50 (huPPARα) | change in vivo at 30 mg/kg (HuapoAI transgenic mice) | inhibition in vivo at 30 mg/kg (HuapoAI transgenic mice)
Cc1oc(C2CCCCC2)nc1CCOc1ccc(CC(C)(Oc2ccc(F)c(F)c2)C(=O)O)cc1 (stereo not shown) [Example 58, 3-{4-[2-(2-Cyclohexyl-5-methyl-oxazol-4-yl)-ethoxy]-phenyl}-2-(3,4-difluoro-phenoxy)-2-methyl-propionic acid] | 0.06 µM | 74% | 26.5%
Cc1cccc(OC(C)(Cc2ccc(OCCc3nc(-c4cccs4)oc3C)cc2)C(=O)O)c1 (stereo not shown) [Example 61, 2-Methyl-3-{4-[2-(5-methyl-2-thiophen-2-yl-oxazol-4-yl)-ethoxy]-phenyl}-2-m-tolyloxy-propionic acid] | 0.064 µM | 72% | 17.6%
Cc1cccc(OC(C)(Cc2ccc(OCCc3nc(C4CCCCC4)oc3C)cc2)C(=O)O)c1 (stereo not shown) [Example 62, 3-{4-[2-(2-Cyclohexyl-5-methyl-oxazol-4-yl)-ethoxy]-phenyl}-2-methyl-2-m-tolyloxy-propionic acid] | 0.058 µM | 72% | 2.5%
Cc1oc(-c2cccs2)nc1CCOc1ccc(CC(C)(Oc2ccc(F)cc2)C(=O)O)cc1 (stereo not shown) [Example 64, 2-(4-Fluoro-phenoxy)-2-methyl-3-{4-[2-(5-methyl-2-thiophen-2-yl-oxazol-4-yl)-ethoxy]-phenyl}-propionic acid] | 0.067 µM | 66% | 43%
Cc1oc(C2CCCCC2)nc1CCOc1ccc(CC(C)(Oc2ccc(F)cc2)C(=O)O)cc1 (stereo not shown) [Example 65, 3-{4-[2-(2-Cyclohexyl-5-methyl-oxazol-4-yl)-ethoxy]-phenyl}-2-(4-fluoro-phenoxy)-2-methyl-propionic acid] | 0.071 µM | 75% | 54%
Cc1oc(C2(C)CCCCC2)nc1CCOc1ccc(C[C@](C)(Oc2ccc(F)cc2)C(=O)O)cc1 [Example 67, (S)-2-(4-Fluoro-phenoxy)-2-methyl-3-(4-{2-[5-methyl-2-(1-methyl-cyclohexyl)-oxazol-4-yl]-ethoxy}-phenyl)-propionic acid] | 0.061 µM | 76% | 67.8%
Cc1oc(-c2cccs2)nc1CCOc1ccc(CC(C)(Oc2cccc(C(F)(F)F)c2)C(=O)O)cc1 (stereo not shown) [Example 71, 2-Methyl-3-{4-[2-(5-methyl-2-thiophen-2-yl-oxazol-4-yl)-ethoxy]-phenyl}-2-(3-trifluoromethyl-phenoxy)-propionic acid] | 0.078 µM | 34% | 
Cc1oc(-c2ccccc2)nc1CCOc1ccc(CC(C)(Oc2ccc3c(c2)OCO3)C(=O)O)cc1 (stereo not shown) [Example 78, 2-(Benzo[1,3]dioxol-5-yloxy)-2-methyl-3-{4-[2-(5-methyl-2-phenyl-oxazol-4-yl)-ethoxy]-phenyl}-propionic acid] | 0.075 µM | 95% | 64.8%
Cc1oc(-c2ccccc2)nc1CCCc1ccc(CC(C)(Oc2ccccc2)C(=O)O)s1 (stereo not shown) [Example 91, 2-Methyl-3-{5-[3-(5-methyl-2-phenyl-oxazol-4-yl)-propyl]-thiophen-2-yl}-2-phenoxy-propionic acid] | 0.215 µM | 46% | 
